This is an account of results in patent US10287267B2, “Isoquinolin-3-yl carboxamides and preparation and use thereof” (Samumed, LLC, priority 2016, dated 2019).

Bounds are passed on as bounds.

By EC50 is commonly meant the concentration at which the effect is half-maximal.

One experiment concerns IL-6. The experiment is described as follows: IL-6 inhibition in LPS-stimulated human peripheral blood mononuclear cells (HTRF).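 For all read-outs here: IL-6 detected by HTRF with an XL665- and Cryptate-labelled anti-IL-6 antibody pair, samples run in duplicate, EC50 obtained from a four-parameter Levenberg-Marquardt curve fit.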 The class given is cell-based. Conditions: Homo sapiens, PBMC; for EC50: Table 9, huPBMCs, LPS 50 ng/mL, 22 hours, dose-response starting from 10 μM; for inhibition at 10 µM: read-out: percent value in parentheses beside EC50 >10 μM. (In general: In TR-FRET formats the signal depends on donor and acceptor labels being close together.)

The target in another experiment is recombinant GSK3β kinase (Homo sapiens (Human), UniProt P49841). The experiment is described as follows: GSK3β kinase assay (Ser/Thr 09 peptide Z-lyte FRET).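 Note: kinase activity read as coumarin to fluorescein emission ratio, 11-point threefold dilutions from 10 µM to 0.0003 µM in duplicate, unphosphorylated and phosphorylated peptide as 0% and 100% controls.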 The class given is biochemical. Conditions: 46 μM ATP, 1 h room temperature.
Experiment [1] deals with recombinant DYRK1A kinase (Homo sapiens (Human), UniProt Q13627). The experiment is described as follows: DYRK1A kinase assay (Ser/Thr 18 peptide Z-lyte FRET).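 Note: Read-out is the coumarin to fluorescein emission ratio, referenced to unphosphorylated (0%) and phosphorylated (100%) Ser/Thr 18 peptide controls, values from dose-response curves by non-linear regression.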 Conditions: 30 μM ATP, 1 h room temperature. The class given is biochemical.
In experiment [2] the test system is Tau phosphorylation at Ser396 (pSer396). The experiment is described as follows: Tau phosphorylation assay (pSer396 ELISA / western blot) in SH-SY5Y cells.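 Note: EC50 for reduction of Tau pSer396 in lysed cells, measured by colorimetric ELISA or chemiluminescent western blot, both using the same pSer396 antibody.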 It is filed as cell-based, human. Particulars: Homo sapiens; SH-SY5Y cells, overnight (16-18 h) exposure; read-out: pSer396 Tau EC50. Background: ELISA stands for enzyme-linked immunosorbent assay.
Experiment [3] has as its system Wnt pathway (Sp5-Luc reporter, TCF/LEF binding sites) in SW480 colon carcinoma cells. The experiment is described as follows: Screening assay for Wnt activity: Sp5-Luc reporter gene assay.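 For all read-outs here: firefly luciferase luminescence read in stably transduced SW480 cells carrying the Sp5 promoter reporter with eight TCF/LEF sites, compounds given in 0.1% DMSO final.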 It is filed as cell-based, human. Particulars: Homo sapiens; for EC50: Sp5-Luc reporter, SW480 cells, 36 to 48 hours; for inhibition at 10 µM: SW480, read-out: percent inhibition at 10 μM.
Experimental: The screening assay for Wnt activity is described as follows.
Following incubation, 15 μl of BriteLite Plus luminescence reagent (Perkin Elmer) was added to each well of the 384-well assay plates. The plates were placed on an orbital shaker for 2 min and then luminescence was quantified using the Envision (Perkin Elmer) plate reader.

Experiment [4] deals with SW480 colon carcinoma cells. The experiment can be described thus: Cell viability assay (CellTiter-Glo). Conditions: Homo sapiens; for EC50: 96 h, SW480 cells, CellTiter-Glo, four days incubation; for inhibition at 10 µM: SW480, read-out: percent inhibition at 10 μM. The class given is cell-based, human. For orientation: ATP-based viability assays read luminescence as a measure of living cells.

Experiment [5] deals with α-smooth muscle actin (αSMA) positive LL29 cells. The experiment can be described thus: Inhibition of fibrotic process: αSMA in TGF-β1 treated primary human fibroblasts from IPF patients.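 For all read-outs here: controls were TGF-β1 stimulated wells with DMSO vehicle (positive) and cells given DMSO alone (negative), cultured in F12 medium with 1% fetal bovine serum.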 The class given is cell-based. Particulars: Homo sapiens, Fibroblast; for EC50: 96 h, Table 8, LL29 fibroblasts from IPF patients, TGF-β1 20 ng/mL, 4 days, dose-response 10 μM to 0.94 nM; for inhibition at 10 µM: read-out: percent value in parentheses beside EC50 >10 μM.

recombinant GSK3β kinase, sequence (P49841 whole entry): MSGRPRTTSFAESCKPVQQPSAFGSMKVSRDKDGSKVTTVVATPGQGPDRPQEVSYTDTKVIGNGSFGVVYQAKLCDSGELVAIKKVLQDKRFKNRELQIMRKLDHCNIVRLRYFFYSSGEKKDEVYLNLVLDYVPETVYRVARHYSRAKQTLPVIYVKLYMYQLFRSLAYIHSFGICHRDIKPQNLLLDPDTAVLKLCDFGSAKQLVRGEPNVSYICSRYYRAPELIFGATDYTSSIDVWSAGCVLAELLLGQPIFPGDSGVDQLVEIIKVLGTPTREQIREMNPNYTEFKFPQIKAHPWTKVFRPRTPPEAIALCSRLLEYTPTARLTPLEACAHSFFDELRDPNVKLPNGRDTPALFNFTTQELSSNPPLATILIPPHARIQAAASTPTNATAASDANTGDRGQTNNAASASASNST
Experimental for IL-6: After 22 hour incubation, a mixture of anti-IL6 XL665 and anti-IL-6 Cryptate diluted in reconstitution buffer (Catalog #62IL6PEC, Cisbio Inc., Bedford, Mass.) was added to each well. […] All samples were processed in duplicate. […] EC50 was determined using software generated by Dotmatics Limited (Windhill Bishops Stortford Herts, UK) using the Levenberg-Marquardt 4 parameter fitting procedure with finite different gradients.

Take `Cn1cc(-c2ccc3cnc(NC(=O)C4CCC(F)(F)CC4)cc3c2)cn1` [Compound 3, 4,4-Difluoro-N-(6-(1-methyl-1H-pyrazol-4-yl)isoquinolin-3-yl) cyclohexanecarboxamide]: the EC50 with IL-6 was found to be 792 nM; at recombinant GSK3β kinase, 38 nM; in experiment [1] it was 3.7 nM; in experiment [2] it was 288 nM; in experiment [3] it was 1700 nM; in experiment [4], 2800 nM. The 50% effective concentration (EC50) in experiment [5] was determined as 103 nM.

As for `CO[C@H]1CC[C@H](C(=O)Nc2cc3cc(-c4cnn(C)c4)ccc3cn2)CC1` [Compound 4, trans-4-Methoxy-N-(6-(1-methyl-1H-pyrazol-4-yl)isoquinolin-3-yl) cyclohexane-1-carboxamide], the EC50 in the experiment with IL-6 is 1130 nM; at recombinant GSK3β kinase, 80 nM; in experiment [1], 1.8 nM; in experiment [2], 671 nM; in experiment [3], 983 nM; in experiment [4], 1940 nM. This compound came in with a half-maximal effective concentration (EC50) in experiment [5] of 68 nM.

With `Cn1cc(-c2ccc3cnc(NC(=O)[C@H]4CC[C@H](N5CCOCC5)CC4)cc3c2)cn1` [Compound 6, trans-N-(6-(1-Methyl-1H-pyrazol-4-yl)isoquinolin-3-yl)-4-morpholinocyclohexane-1-carboxamide], the concentration for a half-maximal effect (EC50) in the experiment with IL-6 came to 1290 nM; at recombinant GSK3β kinase it was 65 nM; in experiment [1], 1.3 nM; in experiment [2], 475 nM; in experiment [3] it was 1110 nM; in experiment [4] it was 1260 nM. This compound displayed a 50% effective concentration (EC50) in experiment [5] of over 10000 nM. For the same compound, in experiment [5], the inhibition at 10 µM was 45.6%.

As to `Cn1cc(-c2ccc3cnc(NC(=O)CN4CCC(C(F)F)CC4)cc3c2)cn1` [Compound 295, 2-(4-(Difluoromethyl)piperidin-1-yl)-N-(6-(1-methyl-1H-pyrazol-4-yl)isoquinolin-3-yl)acetamide], the inhibition at 10 µM in the experiment on IL-6 was determined as 5.9%. Moreover, the EC50 with IL-6 is over 10000 nM; at recombinant GSK3β kinase, 20 nM; in experiment [1], 2.8 nM; in experiment [2], 430 nM; in experiment [3], 2570 nM; in experiment [5], 4460 nM.

As for `O=C(Nc1cc2cc(-c3cnco3)ccc2cn1)C1CCOCC1` [Compound 976, N-(6-(Oxazol-5-yl)isoquinolin-3-yl)tetrahydro-2H-pyran-4-carboxamide], the EC50 on recombinant GSK3β kinase was found to be 146 nM; in experiment [1] it was 6.1 nM; in experiment [2], 536 nM; in experiment [3], 2960 nM; in experiment [4], 3880 nM; in experiment [5], 1170 nM.

Consider `Cn1cc(-c2ccc3cnc(NC(=O)OC(C)(C)C)cc3c2)cn1` [Compound 1025, tert-Butyl (6-(1-methyl-1H-pyrazol-4-yl)isoquinolin-3-yl)carbamate], for which the inhibition at 10 µM turned out to be 13.6% in the experiment on IL-6 and 31.4% in experiment [5]. Besides, the EC50 with IL-6 was over 10000 nM; on recombinant GSK3β kinase, 100 nM; in experiment [1], 78 nM; in experiment [2], over 10000 nM; in experiment [3], over 10000 nM; in experiment [5] it was over 10000 nM.

For the compound `Cc1nnc(-c2ccc3cnc(NC(=O)CN4CCCOCC4)cc3c2)s1` [Compound 1049, N-(6-(5-Methyl-1,3,4-thiadiazol-2-yl)isoquinolin-3-yl)-2-(1,4-oxazepan-4-yl) acetamide], the inhibition at 10 µM in the experiment with IL-6 is 10.4%; in experiment [4] it was 31.3%. The concentration for a half-maximal effect (EC50) with IL-6 was over 10000 nM; at recombinant GSK3β kinase it was 12 nM; in experiment [1], 6.9 nM; in experiment [2], 319 nM; in experiment [3], 2540 nM; in experiment [4], over 10000 nM.

In the case of `CC(F)(F)CN1CCC(C(=O)Nc2cc3cc(-c4cnco4)ccc3cn2)CC1` [Compound 1057, 1-(2,2-Difluoropropyl)-N-(6-(oxazol-5-yl)isoquinolin-3-yl)piperidine-4-carboxamide], the EC50 was 3200 nM in the experiment on IL-6; 97 nM at recombinant GSK3β kinase; 2.7 nM in experiment [1]; 342 nM in experiment [2]; over 10000 nM in experiment [3]; 4500 nM in experiment [4]. In experiment [3], the inhibition at 10 µM worked out at 5%.

Consider `Cc1ncc(-c2ccc3cnc(NC(=O)[C@H]4C[C@H](N5CCOCC5)C4)cc3c2)o1` [Compound 1061, trans-N-(6-(2-Methyloxazol-5-yl)isoquinolin-3-yl)-3-morpholinocyclobutane-1-carboxamide], for which the EC50 in the experiment on IL-6 was 947 nM; at recombinant GSK3β kinase it was 8 nM; in experiment [1] it was 4.3 nM; in experiment [2] it was 58 nM; in experiment [3], 1610 nM; in experiment [4], 1600 nM.

Consider `Cc1ncc(-c2ccc3cnc(NC(=O)CN4CCOCC4)cc3c2)o1` [Compound 1067, N-(6-(2-Methyloxazol-5-yl)isoquinolin-3-yl)-2-morpholinoacetamide], for which the EC50 in the experiment with IL-6 was 8940 nM; on recombinant GSK3β kinase, 67 nM; in experiment [1], 18.8 nM; in experiment [2], 729 nM; in experiment [3], over 10000 nM; in experiment [4], over 10000 nM. The inhibition at 10 µM is 48.7% in experiment [3] and 43.1% in experiment [4].

Consider `Cc1ncc(-c2ccc3cnc(NC(=O)CCN4CCOCC4)cc3c2)o1` [Compound 1068, N-(6-(2-Methyloxazol-5-yl)isoquinolin-3-yl)-3-morpholinopropanamide], for which the half-maximal effective concentration (EC50) was 3400 nM in the experiment with IL-6; 36 nM on recombinant GSK3β kinase; 5.3 nM in experiment [1]; 689 nM in experiment [2]; 3720 nM in experiment [3]; over 10000 nM in experiment [4]. Besides, in experiment [4], the inhibition at 10 µM stood at 46%.

Consider `CN(C)c1nnc(-c2ccc3cnc(NC(=O)C4CCNCC4)cc3c2)o1` [Compound 1075, N-(6-(5-(Dimethylamino)-1,3,4-oxadiazol-2-yl)isoquinolin-3-yl)piperidine-4-carboxamide], for which the EC50 was determined as 3270 nM in the experiment with IL-6; 15 nM on recombinant GSK3β kinase; 13.7 nM in experiment [1]; 709 nM in experiment [2]; 2540 nM in experiment [3]; 5280 nM in experiment [4].

Regarding `COC1CCN(CC(=O)Nc2cc3cc(-c4cnn(C)c4)ccc3cn2)CC1` [Compound 1077, 2-(4-Methoxypiperidin-1-yl)-N-(6-(1-methyl-1H-pyrazol-4-yl)isoquinolin-3-yl)acetamide], the 50% effective concentration (EC50) in the experiment on IL-6 worked out at 3170 nM; on recombinant GSK3β kinase, 32 nM; in experiment [1], 4.5 nM; in experiment [2], 425 nM; in experiment [3] it was 5190 nM; in experiment [4] it was 5250 nM.

In the case of `Cn1cc(-c2ccc3cnc(NC(=O)CN4CCC(O)CC4)cc3c2)cn1` [Compound 1078, 2-(4-Hydroxypiperidin-1-yl)-N-(6-(1-methyl-1H-pyrazol-4-yl)isoquinolin-3-yl)acetamide], the EC50 in the experiment on IL-6 was found to be 3240 nM; on recombinant GSK3β kinase, 70 nM; in experiment [1], 6 nM; in experiment [2] it was 458 nM; in experiment [3], 4030 nM; in experiment [4], 4410 nM.

With `CC(C)CN1CCCC(C(=O)Nc2cc3cc(-c4cnn(C)c4)ccc3cn2)CC1` (stereo not shown) [Compound 1079, 1-Isobutyl-N-(6-(1-methyl-1H-pyrazol-4-yl)isoquinolin-3-yl)azepane-4-carboxamide], the concentration for a half-maximal effect (EC50) in the experiment on IL-6 was 1210 nM; on recombinant GSK3β kinase, 48 nM; in experiment [1] it was 5.7 nM; in experiment [2], 190 nM; in experiment [3] it was 1430 nM; in experiment [4], 2600 nM.

Regarding `CN1CCCC(C(=O)Nc2cc3cc(-c4cnn(C)c4)ccc3cn2)CC1` (stereo not shown) [Compound 1080, 1-Methyl-N-(6-(1-methyl-1H-pyrazol-4-yl)isoquinolin-3-yl)azepane-4-carboxamide], the EC50 amounted to 1070 nM with IL-6; 56 nM on recombinant GSK3β kinase; 3.2 nM in experiment [1]; 251 nM in experiment [2]; 1220 nM in experiment [3]; 1380 nM in experiment [4].

`Cc1ncc(-c2ccc3cnc(NC(=O)[C@H]4CC[C@H](N(C)C)CC4)cc3c2)o1` [Compound 1082, trans-4-(Dimethylamino)-N-(6-(2-methyloxazol-5-yl)isoquinolin-3-yl) cyclohexane-1-carboxamide]: the EC50 in the experiment with IL-6 was 2930 nM; on recombinant GSK3β kinase, 210 nM; in experiment [1] it was 10.2 nM; in experiment [2], 1100 nM; in experiment [3] it was 9900 nM; in experiment [4], 7100 nM.

Take `CN1CCN(CC23CC(C(=O)Nc4cc5cc(-c6cnn(C)c6)ccc5cn4)(C2)C3)CC1` [Compound 1088, N-(6-(1-Methyl-1H-pyrazol-4-yl)isoquinolin-3-yl)-3-((4-methylpiperazin-1-yl)methyl)bicyclo[1.1.1]pentane-1-carboxamide]: the 50% effective concentration (EC50) with IL-6 worked out at 5980 nM; at recombinant GSK3β kinase it was 937 nM; in experiment [1] it was 9.3 nM; in experiment [2], 8600 nM; in experiment [3], 7400 nM; in experiment [4], 9190 nM.

In the case of `CN1CCC(NC(=O)Nc2cc3cc(-c4cnn(C)c4)ccc3cn2)CC1` [Compound 1090, 1-(6-(1-Methyl-1H-pyrazol-4-yl)isoquinolin-3-yl)-3-(1-methylpiperidin-4-yl)urea], the concentration giving a half-maximal response (EC50) with IL-6 was 484 nM; at recombinant GSK3β kinase, 288 nM; in experiment [1], 6.9 nM; in experiment [2], 969 nM; in experiment [3] it was 722 nM; in experiment [4], 994 nM.
